# Measurements published in patent publication US12655116B2, “Substituted isophthalic acid diamides” (Bayer Aktiengesellschaft, priority 2020, dated 2026).
# Experiments:
# AMARE [1] = assay: Post-emergence herbicidal action against AMARE; type: in vivo, Amaranthus retroflexus; conditions: Amaranthus retroflexus, 504 h, 80 g/ha, visual assessment about 3 weeks after treatment, 100% = plants have died, 0% = like control plants
# How it was run: (§1)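 Weeds in sandy loam soil received a post-emergence spray at the one-leaf stage. Compounds were applied as WP or EC in water, 600 to 800 l/ha, with 0.2% wetting agent. Activity in % was judged visually after roughly 3 weeks against untreated plants.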
# STEME [2] = assay: Pre-emergence herbicidal action against STEME; type: in vivo, Stellaria media; conditions: Stellaria media, 504 h, dosage 320 g/ha
# How it was run: (§2)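 Visual rating at 3 weeks vs untreated pots; 0–100% scale, 100% = plants died. Treatment: aqueous WP/EC spray onto covering soil, 600–800 l/ha, 0.2% wetter, seeds in sandy loam.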
# ABUTH [3] = assay: Post-emergence herbicidal action against ABUTH; type: in vivo, Abutilon theophrasti; conditions: Abutilon theophrasti, 504 h, visual assessment about 3 weeks after treatment vs untreated controls
# How it was run: as §1
# MATIN = assay: Pre-emergence herbicidal action against MATIN; type: in vivo, Matricaria inodora; conditions: Tripleurospermum inodorum, 504 h, dosage 320 g/ha
# How it was run: as §2
# AVEFA [4] = assay: Pre-emergence herbicidal action against AVEFA; type: in vivo, Avena fatua; conditions: Avena fatua, pre-emergence, 504 h; 320 g/ha; scored visually after 3 weeks, 100% = plants have died, 0% = like control plants
# How it was run: as §2
# AMARE [5] = assay: Pre-emergence herbicidal action against AMARE; type: in vivo, Amaranthus retroflexus; conditions: Amaranthus retroflexus, 504 h, 100% = plants have died, 0% = like control plants
# How it was run: as §2
# VIOTR [6] = assay: Pre-emergence herbicidal action against VIOTR; type: in vivo, Viola tricolor; conditions: Viola tricolor, 504 h, dosage 320 g/ha
# How it was run: as §2
# HORMU [7] = assay: Pre-emergence herbicidal action against HORMU; type: in vivo, Hordeum murinum; conditions: Hordeum murinum, 504 h; 320 g/ha, pre-emergence
# How it was run: as §2
# VIOTR [8] = assay: Post-emergence herbicidal action against VIOTR; type: in vivo, Viola tricolor; conditions: Viola tricolor, 504 h
# How it was run: as §1
# CYPES [9] = assay: Pre-emergence herbicidal action against CYPES; type: in vivo; conditions: Cyperus esculentus, 504 h
# Description: Seeds of monocotyledonous and dicotyledonous weed plants and crop plants are laid out in sandy loam soil in wood-fiber pots and covered with soil. The compounds of the invention, formulated in the form of wettable powders (WP) or as emulsion concentrates (EC), are then applied to the surface of the covering soil in the form of an aqueous suspension or emulsion at a water application rate equivalent to 600 to 800 l/ha, with addition of 0.2% wetting agent. After the treatment, the pots are placed in a greenhouse and kept under good growth conditions for the trial plants. The damage to the test plants is scored visually after a test period of 3 weeks by comparison with untreated controls (herbicidal activity in percent (%): 100% activity=the plants have died, 0% activity=like control plants). […] The tables below illustrate, in an illustrative manner, the post-emergence herbicidal action of the compounds of the invention, the herbicidal activity being stated in percent.
# SETVI [10] = assay: Pre-emergence herbicidal action against SETVI; type: in vivo, Setaria viridis; conditions: Setaria viridis, 504 h, dosage 320 g/ha
# How it was run: as §2
# STEME [11] = assay: Post-emergence herbicidal action against STEME; type: in vivo, Stellaria media; conditions: Stellaria media, 504 h, 80 g/ha
# How it was run: as §1
# ECHCG [12] = assay: Post-emergence herbicidal action against ECHCG; type: in vivo, Echinochloa crus-galli; conditions: Echinochloa crus-galli, 504 h, dosage 80 g/ha
# How it was run: as §1
# HORMU [13] = assay: Post-emergence herbicidal action against HORMU; type: in vivo, Hordeum murinum; conditions: Hordeum murinum, 504 h, dosage 80 g/ha
# How it was run: as §1
# ALOMY [14] = assay: Post-emergence herbicidal action against ALOMY; type: in vivo, Alopecurus myosuroides; conditions: Alopecurus myosuroides, 504 h, dosage 80 g/ha, visual assessment about 3 weeks after treatment vs untreated controls
# How it was run: as §1
# ECHCG [15] = assay: Pre-emergence herbicidal action against ECHCG; type: in vivo, Echinochloa crus-galli; conditions: Echinochloa crus-galli, 504 h, 320 g/ha
# How it was run: as §2
# SETVI [16] = assay: Post-emergence herbicidal action against SETVI; type: in vivo, Setaria viridis; conditions: Setaria viridis, 504 h
# How it was run: as §1
# VERPE [17] = assay: Post-emergence herbicidal action against VERPE; type: in vivo, Veronica persica; conditions: Veronica persica, 504 h
# How it was run: as §1
# CYPES [18] = assay: Post-emergence herbicidal action against CYPES; type: in vivo, Cyperus esculentus; conditions: 80 g/ha, visual assessment about 3 weeks after treatment, 100% = plants have died, 0% = like control plants
# Procedure: Seeds of monocotyledonous and dicotyledonous weed and crop plants are laid out in sandy loam soil in wood-fiber pots, covered with soil and cultivated in a greenhouse under good growth conditions. 2 to 3 weeks after sowing, the test plants are treated at the one-leaf stage. The compounds of the invention, formulated in the form of wettable powders (WP) or as emulsion concentrates (EC), are then sprayed onto the green parts of the plants in the form of an aqueous suspension or emulsion at a water application rate equivalent to 600 to 800 l/ha, with addition of 0.2% wetting agent. After the test plants have been left to stand in the greenhouse under optimal growth conditions for about 3 weeks, the action of the preparations is assessed visually in comparison to untreated controls (herbicidal action in percent (%): 100% activity=the plants have died, 0% activity=like control plants). […] The tables below illustrate, in an illustrative manner, the post-emergence herbicidal action of the compounds of the invention, the herbicidal activity being stated in percent.
# ABUTH [19] = assay: Pre-emergence herbicidal action against ABUTH; type: in vivo, Abutilon theophrasti; conditions: Abutilon theophrasti, 504 h
# How it was run: as §2
# AVEFA [20] = assay: Post-emergence herbicidal action against AVEFA; type: in vivo, Avena fatua; conditions: Avena fatua, 504 h, 80 g/ha, visual assessment about 3 weeks after treatment, 100% = plants have died, 0% = like control plants
# How it was run: as §1
# VERPE [21] = assay: Pre-emergence herbicidal action against VERPE; type: in vivo, Veronica persica; conditions: Veronica persica, 504 h, dosage 320 g/ha
# How it was run: as §2
# ALOMY [22] = assay: Pre-emergence herbicidal action against ALOMY; type: in vivo, Alopecurus myosuroides; conditions: Alopecurus myosuroides, pre-emergence, 504 h; 320 g/ha; scored visually after 3 weeks, 100% = plants have died, 0% = like control plants
# How it was run: as §2
structure (smiles),measurement,setting,value
Cc1nnc(NC(=O)c2ccc(C(F)(F)F)c(C(N)=O)c2Cl)o1 [Example 6-253],pest or weed control at 80 g/ha,AMARE [1],100%
same,pest or weed control at 320 g/ha,STEME [2],100%
same,pest or weed control at 5 g/ha,ABUTH [3]; dosage 5 g/ha,100%
same,pest or weed control at 20 g/ha,ABUTH [3]; dosage 20 g/ha,100%
same,pest or weed control at 80 g/ha,ABUTH [3]; dosage 80 g/ha,100%
same,pest or weed control at 320 g/ha,MATIN,100%
same,pest or weed control at 320 g/ha,AVEFA [4],90%
same,pest or weed control at 80 g/ha,"AMARE [5]; 80 g/ha, scored visually after 3 weeks vs untreated controls",80%
same,pest or weed control at 320 g/ha,"AMARE [5]; 320 g/ha, scored visually after 3 weeks",90%
same,pest or weed control at 320 g/ha,VIOTR [6],100%
same,pest or weed control at 320 g/ha,HORMU [7],90%
same,pest or weed control at 20 g/ha,VIOTR [8]; 20 g/ha,80%
same,pest or weed control at 80 g/ha,VIOTR [8]; 80 g/ha,80%
same,pest or weed control at 20 g/ha,"CYPES [9]; 20 g/ha, scored visually after 3 weeks, 100% = plants have died, 0% = like control plants",80%
same,pest or weed control at 80 g/ha,"CYPES [9]; 80 g/ha, scored visually after 3 weeks, 100% = plants have died, 0% = like control plants",90%
same,pest or weed control at 320 g/ha,CYPES [9]; 320 g/ha,100%
same,pest or weed control at 320 g/ha,SETVI [10],100%
same,pest or weed control at 80 g/ha,STEME [11],90%
same,pest or weed control at 80 g/ha,ECHCG [12],90%
same,pest or weed control at 80 g/ha,HORMU [13],90%
same,pest or weed control at 80 g/ha,ALOMY [14],80%
same,pest or weed control at 320 g/ha,ECHCG [15],100%
same,pest or weed control at 20 g/ha,SETVI [16]; dosage 20 g/ha,90%
same,pest or weed control at 80 g/ha,SETVI [16]; dosage 80 g/ha,100%
same,pest or weed control at 20 g/ha,VERPE [17]; 20 g/ha,80%
same,pest or weed control at 80 g/ha,VERPE [17]; 80 g/ha,90%
same,Post-emergence action at 80 g/ha against CYPES in %,CYPES [18],80%
same,pest or weed control at 80 g/ha,"ABUTH [19]; 80 g/ha, scored visually after 3 weeks vs untreated controls (100% = plants have died, 0% = like control plants)",90%
same,pest or weed control at 320 g/ha,"ABUTH [19]; Dosage: 320 g/ha, scored visually after 3 weeks, 100% = plants have died, 0% = like control plants",100%
same,pest or weed control at 80 g/ha,AVEFA [20],80%
same,pest or weed control at 320 g/ha,VERPE [21],100%
same,pest or weed control at 320 g/ha,ALOMY [22],90%
